Structures can show the parent of a compound that is named as a salt. Non-standard residues stand in square brackets, D forms with d. Residues, ends and D or L forms follow the SMILES beside them. Oic = O=C(O)[C@@H]1C[C@@H]2CCCC[C@@H]2N1; Phe(4-Me) = Cc1ccc(C[C@H](N)C(=O)O)cc1
Experiments:
[1] = system: whole blood sample; experiment: Visual inspection of stored whole blood sample for hemolysis; type: cell-based, human; conditions: Table 5
Text: Skilled practitioners will appreciate the hemolyzed samples are an obvious visual clue that damage to blood cells has occurred, either during the collection, transport, or storage of blood samples. Although hemolysis is not necessarily detrimental to any one clinical assay, it is a well known interference for some tests, and thus it is preferable to avoid causing hemolysis. Hemolysis can be measured by visual scale (e.g., mild or slightly pink, moderate or noticeably red, or severe or dark red). Hemolysis can also be measured by spectroscopic measurement of the red color of the hemoglobin itself, and can be reported by the concentration of hemoglobin released into the serum or plasma (e.g., such that less than about 20 mg/dL concentration of released hemoglobin, or to an extent that the hemoglobin concentration cannot be measured visually or by spectroscopy represents “minor or negligible” hemolysis, about 20 to about 100 mg/dL represents “mild” hemolysis, about 100 to about 300 represents “moderate” hemolysis, or greater than about 300 mg/dL represents “severe” hemolysis).
(§1) The results are shown in Table 5 which lists additives alone or in combination that were spiked into freshly drawn whole blood samples. […] For some of the conditions tested, only a subset of these three parameters was recorded.

[2] = system: platelets; experiment: Whole blood impedance aggregometry (Multiplate): platelet aggregation after room temperature storage of drawn blood; type: cell-based, human
Text: The blood was allowed to stand at room temperature, in undisturbed aliquots, until tested at the times indicated. Samples were inverted several times immediately prior to testing, to re-suspend blood cells that naturally settle over time.
Measurements: Testing of platelet function (which in this experiment, was aggregation activity) was done using the Multiplate instrument (Verum Diagnostics, Munich, Germany), which uses whole blood as the sample and an increase in impedance as the measurement of platelet aggregation. The instrument was used per manufacturer's instructions. Briefly, 300 microliters of isotonic saline was warmed in each reaction cuvette, and to this was added 300 microliters of the whole blood sample. In reactions where aspirin or other platelet antagonists (inhibitors) were added in vitro, 20 microliters (μL) of a stock solution of aspirin was spiked into the samples. The aggregation reaction was initiated by addition of a platelet agonist, in this case collagen, at 3.2 μg/ml and volume (20 μl) per manufacturer's instructions. Upon addition of the collagen, the impedance measurements began automatically, and were continued for 6 minutes, representing the full course along the x-axis in the graphs shown in FIG. 2. The graphs show platelet aggregation, as reported by impedance, as an arbitrary unitless measurement on the y-axis, over the 6-minute run time on the x-axis. Traces shown are raw platelet aggregation data delivered from the instrument. […] Representative data are shown for blood that dwells at room temperature after the initial draw for 1 hr, 24 hr, 48 hr, and 72 hr. Data are shown for the blood itself, as well for blood pre-treated with aspirin to inhibit platelet function immediately prior to testing.
The experiments were performed as described in Example 1. In this case, the data are plotted as a function of time that the blood sample dwells outside of the body (x-axis) versus platelet function as shown as the area under the curve (AUC) as one representation of the platelet aggregation signal. AUC is the integrated signal from the raw data traces shown in Example 1, and also is reported as a unitless measurement. The effective background level of the instrument is drawn as a dashed line across the bottom of the graph. Any AUC measurement of aggregation at or below this level was considered so weak as to be unreportable, essentially representing a “null” data level.
(§2) Relative stability of platelets was examined with respect to a range of concentrations of variegin (SEQ ID NO:1). Experiments were performed as described above, using either collagen or adenosine diphosphate (ADP) as agonists, all per manufacturer's recommended protocols. Table 2 lists a qualitative assessment of stability, namely how long after initially drawing the blood was platelet aggregation measureable above the effective instrument baseline, the time to first visual observation of clotted, insoluble material in the whole blood sample, and an assessment of the severity or extent of the presence of this insoluble material was also recorded.
These peptides were used as the blood stabilization agent, and were spiked into blood immediately after collection into an empty, evacuated blood collection tube, achieving a final concentration of 150 μM. The blood was allowed to dwell in a whole-blood state at room temperature, until assayed for platelet aggregation potential, all as described in Example 1. Agonists used included collagen and ADP, following manufacturer's instructions.

[3] = system: platelets; experiment: Platelet aggregation measurements using low dose ADP agonist, inventive tube versus hirudin tube; type: cell-based, human; parameters: key to Aggregation, AUC: area under curve of impedance aggregation trace, arbitrary unitless units; conditions: ADP 1.25 μM
Experimental: Measurements: Testing of platelet function (which in this experiment, was aggregation activity) was done using the Multiplate instrument (Verum Diagnostics, Munich, Germany), which uses whole blood as the sample and an increase in impedance as the measurement of platelet aggregation. The instrument was used per manufacturer's instructions. Briefly, 300 microliters of isotonic saline was warmed in each reaction cuvette, and to this was added 300 microliters of the whole blood sample. In reactions where aspirin or other platelet antagonists (inhibitors) were added in vitro, 20 microliters (μL) of a stock solution of aspirin was spiked into the samples. The aggregation reaction was initiated by addition of a platelet agonist, in this case collagen, at 3.2 μg/ml and volume (20 μl) per manufacturer's instructions. Upon addition of the collagen, the impedance measurements began automatically, and were continued for 6 minutes, representing the full course along the x-axis in the graphs shown in FIG. 2. The graphs show platelet aggregation, as reported by impedance, as an arbitrary unitless measurement on the y-axis, over the 6-minute run time on the x-axis. Traces shown are raw platelet aggregation data delivered from the instrument. The duplicate traces evident in some of the graphs represent two duplicate measurement channels that always ran simultaneously, to assist with statistical significance of the data, and often so closely overlap as to look like only a single trace in some graphs. Representative data are shown for blood that dwells at room temperature after the initial draw for 1 hr, 24 hr, 48 hr, and 72 hr. Data are shown for the blood itself, as well for blood pre-treated with aspirin to inhibit platelet function immediately prior to testing.
Relative stability of platelets was examined in blood that was collected from 5 different human subjects using an inventive blood collection tube containing 150 μM variegin (SEQ ID NO:1)+1.17 USP/mL unfractionated heparin, and as a comparison, blood collection tubes containing hirudin, commercially available from Verum Diagnostica (Catalog #MP0600 for “Hirudin vacuum blood collection tube”). Experiments were carried out as described above in Example 1, using the whole blood impedance aggregometer, and using a low dose of ADP (1.25 μM final concentration) as the agonist.

[4] = system: whole blood sample; experiment: Visual inspection of stored whole blood sample for clotted, insoluble material; parameters: species or system human; conditions: peptide 150 μM; room temperature
Experimental: as §2
These peptides were used as the blood stabilization agent, and were spiked into blood immediately after collection into an empty, evacuated blood collection tube, achieving a final concentration of 150 μM. The blood was allowed to dwell in a whole-blood state at room temperature, until assayed for platelet aggregation potential, all as described in Example 1. Agonists used included collagen and ADP, following manufacturer's instructions. Table 4 lists a qualitative assessment of stability, namely how long after initially drawing the sample was platelet aggregation measureable above the effective instrument baseline. Additionally, the time to first visual observation of clotted, insoluble material in the whole blood sample, and an assessment of the severity or extent of the presence of this insoluble material was also recorded. In some cases, only visual characterization of the amount of insoluble material was reported, without having performed any platelet aggregation measurements.
as §1

[5] = Table 4, peptide spiked into blood to 150 μM final, collagen and ADP, room temperature

O=S(=O)(O)OC[C@H]1O[C@@](COS(=O)(=O)O)(O[C@H]2O[C@H](COS(=O)(=O)O)[C@@H](OS(=O)(=O)O)[C@H](OS(=O)(=O)O)[C@H]2OS(=O)(=O)O)[C@@H](OS(=O)(=O)O)[C@@H]1OS(=O)(=O)O [SOS, sucrose octasulfate]
Visual inspection for hemolysis ([1]; additive alone at 2 mM): None-mild

Cc1ccc(C[C@H](NC(=O)[C@@H](C)NC(=O)[C@@H]2CCCN2C(=O)[C@@H]2C[C@@H]3CCCC[C@@H]3N2C(=O)[C@H](N)CCCN=C(N)N)C(N)=O)cc1 [Thrombostatin (FM-19), rOicPaF(p-Me)—NH2] (H-[dR][Oic]P[dA][Phe(4-Me)]-NH2)
Visual inspection for hemolysis ([1]; additive alone at 30 μM): None-mild

O=C(O)CC(O)(CC(=O)O)C(=O)O [citrate, sodium citrate, reference compound]
platelet aggregation, area under the curve (AUC), FIG. 3 ([2]; 24 hr after draw, collagen, no aspirin): very close to the effective null level
platelet aggregation, area under the curve (AUC), FIG. 3 ([2]; 48 hr after draw, collagen, no aspirin): no meaningful aggregation was detected
platelet aggregation signal (impedance, FIG. 2) ([2]; all times longer than 1 hr (24, 48, 72 hr), collagen, sodium citrate ([…]) tube): clearly lost, resulting in almost non-measureable signal
loss of platelet function relative to the 1 hr sample (FIG. 4) ([2]; within 24 hr, collagen, average of three human subjects): lost well more than half of their function

CC[C@H](C)[C@H](NC(=O)[C@H](C)NC(=O)[C@H](CCC(=O)O)NC(=O)[C@H](Cc1ccccc1)NC(=O)[C@H](CC(=O)O)NC(=O)[C@H](Cc1ccccc1)NC(=O)[C@@H]1CCCN1C(=O)[C@@H]1CCCN1C(=O)[C@H](C)NC(=O)[C@@H](NC(=O)[C@H](CCCCN)NC(=O)[C@H](Cc1cnc[nH]1)NC(=O)[C@H](CCSC)NC(=O)[C@H](CCCCN)NC(=O)[C@@H]1CCCN1C(=O)[C@H](CCC(=O)O)NC(=O)[C@H](C)NC(=O)[C@@H](NC(=O)[C@H](CC(=O)O)NC(=O)CNC(=O)[C@H](CCC(N)=O)NC(=O)[C@H](CC(=O)O)NC(=O)[C@@H](N)CO)C(C)C)[C@@H](C)O)C(=O)N1CCC[C@H]1C(=O)N[C@@H](CCC(=O)O)C(=O)N[C@@H](CCC(=O)O)C(=O)N[C@@H](Cc1ccc(O)cc1)C(=O)N[C@@H](CC(C)C)C(=O)N[C@@H](CC(=O)O)C(=O)N[C@@H](CC(=O)O)C(=O)N[C@@H](CCC(=O)O)C(=O)N[C@@H](CO)C(=O)O [variegin]
Visual inspection for hemolysis ([1]; additive alone at 150 μM): None-mild
platelet aggregation signal (impedance, FIG. 2) ([2]; 24 and 48 hrs after draw, collagen, tube with 150 μM variegin, room temperature): preserved platelet function substantially at the level of function measured in the 1 hr-old sample
platelet aggregation, area under the curve (AUC), FIG. 3 ([2]; 72 hr after draw, collagen, 150 μM variegin): meaningful measurements even at 72 hr
platelet aggregation signal (impedance, FIG. 2) ([2]; 72 hr after draw, collagen, tube with 150 μM variegin, room temperature): slightly reduced but still sufficiently strong
Time after blood draw where aggregation was still measurable above baseline ([2]; Table 2, 2 μM variegin, collagen or ADP, room temperature): 2 h
Time after blood draw where aggregation was still measurable above baseline ([2]; Table 2, 15 μM variegin, collagen or ADP, room temperature): 24 h
Time after blood draw where aggregation was still measurable above baseline ([2]; Table 2, 50 μM variegin, collagen or ADP, room temperature): 24 h
Time after blood draw where aggregation was still measurable above baseline ([2]; Table 2, 75 μM variegin, collagen or ADP, room temperature): 48 to 72 h
Time after blood draw where aggregation was still measurable above baseline ([2]; Table 2, 150 μM variegin, collagen or ADP, room temperature): ≥ 72 h
Time after blood draw where aggregation was still measurable above baseline [2, 5]: 72 h
platelet aggregation signal maintained relative to the 1 hr sample (FIG. 4) ([2]; as of 48 hr, collagen, average of three human subjects, 150 μM variegin): well more than half of the signal was maintained
strength of platelet aggregation signal (impedance, FIG. 2) ([2]; fresh sample, 1 hr after draw, collagen […], tube with 150 μM variegin or sodium citrate ([…]), room temperature): higher than the citrate reference sample

GDVAEPKMHKTAPPFDFEAIPEEYLDDES (Synthetic Peptide Variegin Fragment) [Ct29]
Time after blood draw where aggregation was still measurable above baseline [2, 5]: 54 to 79 h

Hirudin
Aggregation, AUC ([3]; 0 hr, Subject 1): 34
Aggregation, AUC ([3]; 0 hr, Subject 2): 18
Aggregation, AUC ([3]; 0 hr, Subject 3): 84
Aggregation, AUC ([3]; 0 hr, Subject 4): 113
Aggregation, AUC ([3]; 0 hr, Subject 5): 59
Aggregation, AUC ([3]; 24 hr, Subject 1): 27
Aggregation, AUC ([3]; 24 hr, Subject 2): 15
Aggregation, AUC ([3]; 24 hr, Subject 3): 25
Aggregation, AUC ([3]; 24 hr, Subject 4): 22
Aggregation, AUC ([3]; 24 hr, Subject 5): 37
area under the curve for the 1 h sample ([3]; one of the five samples): 18
aggregation (AUC), mean +/- spread of the 5 samples ([3]; time zero): 62+/−38

SDQGDVAEPAMHKTAPPFDFEAIPEEYLDDES (Synthetic Peptide Variegin Fragment) [K10A]
time after blood draw to solid clotting of the sample [4]: ≤ 4 h

heparin [reference compound]
blood stabilization performance (data not shown) ([2]; used alone at 1.17 U/ml): performed relatively poorly

— patent publication US10299714B2, “Blood collection devices containing blood stabilization agent including variegin or analog thereof and/or a polysulfated disaccharide” (Becton, Dickinson and Company, priority 2010, dated 2019)
